Data as given in US20240341301A1 (The Regents of the University of Michigan, priority 2023, published 2024).

How the values were obtained:
murine donor hearts [1] = test: Murine ex-vivo heart perfusion after cold preservation; design: species or system mouse; conditions: for ex vivo donor heart contractility / ex vivo donor heart relaxation: HDAC inhibitor in HTK, 16 hours cold preservation
Procedure: (§1) Male and female WT or Irg1^−/− mice (Jackson laboratories, Bar Harbor, ME) were anesthetized intraperitoneally with 80 mg/kg ketamine and 5 mg/kg xylazine, anticoagulated with heparin (2,000 U/kg iv), and the heart was rapidly exposed through a sternal incision. The aorta was cannulated and retrograde perfused in-situ with HTK solution±HDAC inhibitors. After cannulation, the heart dissected free, the left atrium was opened. For 4-OI (Cayman Chemical, 25374) experiments, donor mice were treated 4-OI (dissolved in 40% β-Cyclodextrin, 50 mg/kg intraperitoneally) or vehicle control (40% β-Cyclodextrin intraperitoneally) 2 hours prior to donor heart procurement. After dissection, the heart was stored at 4° C. with HTK or HTK with VPA for a pre-designated duration. The hearts were then mounted on a Radnoti mouse Langendorff apparatus (ADInstruments inc., Colorado Springs, CO) in constant-pressure mode (˜70 mmHg) with a modified Krebs-Henseleit buffer (KHB; in mM: 118 NaCl, 4.7 KCl, 1.25 CaCl2), 1.66 MgSO4, 24.88 NaHCO3, 1.18 KH2PO4, 5.55 glucose, and 2.0 Na-pyruvate). A balloon was placed in the LV through the left atrium and left ventricular diastolic pressure was set to ˜8 mmHg at initiation. The heart was perfused with modified Krebs-Henseleit buffer for 30 min to stabilize and then hemodynamics measurements were recorded. Myocardial temperature was maintained at 37° C. LabChart software (ADInstruments inc., Colorado Springs, CO) was used to record ventricular function, perfusion pressures, cardiac chamber temperature and myocardial temperature. After perfusing the heart for 60 minutes, the heart was removed from the ex-vivo perfusion apparatus for specimen collection. Tissue was immediately placed in liquid N2 or treated with 4% formalin.

Irg1 = Irg1 mRNA transcript expression in preserved murine donor hearts; design: species or system mouse; conditions: 16 hours preservation without reperfusion and during ex vivo perfusion
Procedure: as §1

[2] = cited from earlier work
[3] = test system: HL-1 murine cardiomyocytes; test: HL-1 cardiomyocytes in HTK under normoxic or hypoxic conditions, Western blot; format: cell-based, mouse; conditions: for HO1 protein abundance / NRF2 / SOD1 protein abundance: normoxic and hypoxic conditions
Procedure: HL-1 murine cardiomyocytes cells (Sigma-Aldrich, SCC065) were cultured in Claycomb Medium (Sigma-Aldrich, 51800C). […] The medium was then changed to cold HTK solution and incubated in an hypoxic incubation chamber (Stem cell technologies). The chamber cold hypoxic conditions consist premixed of 1% Oxygen and 5% Carbon dioxide gas (Cryogenic gases, Detroit MI) with cell culture at 4° C. for 2 hours. After cold preservation culture, the medium was changed to 37° C. DMEM at atmospheric conditions and cells were incubated for an additional 2 hours. Cell lysates were then collected for Western blot analysis.

mice = test: Doxorubicin-induced cardiotoxicity in mice; format: in vivo, mouse; conditions: 5 mg/Kg doxorubicin for 5 weeks, I.P. every 3.5 days
Procedure: FIG. 16. […] 6-week mice were treated with 5 mg/Kg doxorubicin for 5 weeks. […] There are improved ejection fraction, stroke volume, and increased heart and lung weight in itaconate-treated groups compared to saline-treated groups.
FIG. 17. […] 6-week mice were treated with 5 mg/Kg doxorubicin for 5 weeks.

H9C2 cardioblast = test: Doxorubicin-treated H9C2 cardioblast; format: cell-based; conditions: 1 μM doxorubicin
Procedure: FIG. 18. FIG. 4. […] The doxorubicin-induced cell death were evaluated by cleaved caspase 3 using western blot.
FIG. 19. FIG. 4. […] The 5-hmC level were detected using immunostaining.

murine donor hearts [4] = test: Murine donor heart tissue staining and Western blot (oxidative stress, antioxidant proteins, cell death); design: species or system mouse; conditions: donor mice treated with 4-OI
Procedure: as §1

[5] = compared to saline-treated groups
[6] = donor mice treated 4-OI 50 mg/kg intraperitoneally 2 hours prior to procurement, 16 hours of preservation, ex vivo perfusion

Row | SMILES | ex vivo donor heart contractility (murine donor hearts [1]) | ex vivo donor heart relaxation (murine donor hearts [1]) | Irg1 transcript expression (Irg1) | water solubility [2] | HO1 protein abundance [3] | NRF2 [3] | SOD1 protein abundance [3] | other results
1 | CC(/C=C/C(=O)NO)=C\[C@@H](C)C(=O)c1ccc(N(C)C)cc1 [TSA, Trichostatin A] | improved | improved | increased | poorly water soluble |  |  |  | 
2 | C=C(CC(=O)O)C(=O)O [itaconate] |  |  |  |  | enhanced | no changes | enhanced | murine donor heart function (murine donor hearts [1]; after 16 hours of storage): improved; antioxidant expression (HO1, SOD1) ([3]; itaconate 10 mM in HTK, normoxic (20% O2) and hypoxic (1% O2), 2 hours): increased; serum cTnI level (mice): reduced; ejection fraction (mice; [5]): improved; heart and lung weight (mice; [5]): increased; stroke volume (mice; [5]): improved; cardiomyocyte apoptosis (cleaved caspase 3, western blot) (H9C2 cardioblast; 2 mM itaconate, 18 hours): reduced; doxorubicin induced 5-hmC accumulation (H9C2 cardioblast; 2 mM itaconate, immunostaining): reduce
3 | O=C(CCCCCCC(=O)Nc1ccccc1)NO [SAHA, Suberoylanilide hydroxamic acid] | improved | improved | increased | poorly water soluble |  |  |  | 
4 | COc1cccc2c1C(=O)c1c(O)c3c(c(O)c1C2=O)C[C@@](O)(C(=O)CO)C[C@@H]3O[C@H]1C[C@H](N)[C@H](O)[C@H](C)O1 [Doxorubicin, doxorubicin] |  |  |  |  |  |  |  | 5-hmC level (H9C2 cardioblast; immunostaining): induces accumulation
5 | C=C(CC(=O)OCCCCCCCC)C(=O)O [4-OI, 4-octyl itaconate] |  |  |  |  | enhanced | no changes | enhanced | cardiac contractility (murine donor hearts [1]; [6]): improved; cardiac relaxation (murine donor hearts [1]; [6]): improved; NRF2 nuclear translocation in cardiac tissue (murine donor hearts [4]): increased; oxidative DNA damage (8-OHdG fluorescence) (murine donor hearts [4]): reduced
